Experimental data: PMC11172478, “1,3,5-Triazine as Branching Connector for the Construction of Novel Antimicrobial Peptide Dendrimers: Synthesis and Biological Characterization” (International Journal of Molecular Sciences, 2024)
Converted amounts (≈) assume the structure as drawn. Where two headings read alike, the source gives them in different places. Starred links: 1 amine or outer side, 2 acyl side, 3 side chain; linkers in the order of their positions; H or OH if unused. Positions of bridges follow the written chain, without caps; N, C: chain ends. Non-standard residues stand in square brackets, D forms with d. Residues, ends and D or L forms follow the SMILES beside them. Chains are numbered I, II in the order given. *: point of attachment. X3 = CC(=O)NCCNc1nc(NCCNC(C)=O)nc(N([C@@H](CC(C)C)C(=O)[*:2])[*:1])n1; X4 = CC(=O)NCCNc1nc(NCCNC(C)=O)nc(Oc2ccc(C(=O)*)cc2)n1; X2 = CC[C@H](C)CCCCC(=O)*; Dab = NCC[C@H](N)C(=O)O

Columns and labels:
Format in all cases: cell-based
E. coli 13974 = assay: microbe, parasite or virus in culture; conditions: Escherichia coli; MDR isolate E. coli 13974; read-out: MIC
Procedure: (§1) E. coli ATCC 25922, P. aeruginosa ATCC 27853, S. aureus ATCC 29213, P. aeruginosa 666 SJD (ciprofloxacin-resistant), P. aeruginosa P12, P13, P15, P16 and P17 (MDR isolates) and E. coli 7987, 5545, 8248, 13974, 7259 and 208691 (MDR isolates) from our own collection were included in the present study.
(§2) The antimicrobial activity of the dendrimers was evaluated against E. coli ATCC 25922, P. aeruginosa ATCC 27853 and S. aureus ATCC 29213 strains. The MIC values were determined by the broth microdilution method. Briefly, the different strains were grown in Muller Hinton broth cation adjusted (MHBCA) medium overnight at 37 °C with shaking at 200 rpm. The bacterial cultures were then adjusted to OD625nm of 0.08–0.1, and 5 μL of each diluted suspension was added to 96-well plates previously filled with MHBCA and serially diluted peptides. Plates were incubated for 24 h at 37 °C. Finally, the MIC was determined macroscopically, based on the visual turbidity of the wells.

E. coli 208691 = assay: microbe, parasite or virus in culture
Procedure: as §1, §2

E. coli 5545 = assay: microbe, parasite or virus in culture; conditions: Escherichia coli; MDR isolate E. coli 5545; read-out: MIC
Procedure: as §1, §2

E. coli 7259 = assay: microbe, parasite or virus in culture; conditions: Escherichia coli; MDR isolate E. coli 7259; read-out: MIC
Procedure: as §1, §2

E. coli 7987 = assay: microbe, parasite or virus in culture; conditions: Escherichia coli; MDR isolate E. coli 7987; read-out: MIC
Procedure: as §1, §2

E. coli 8248 = assay: microbe, parasite or virus in culture; conditions: Escherichia coli; MDR isolate E. coli 8248; read-out: MIC
Procedure: as §1, §2

P. aeruginosa P12 = assay: microbe, parasite or virus in culture; conditions: MDR isolate P. aeruginosa P12
Procedure: as §1, §2

P. aeruginosa P13 = assay: microbe, parasite or virus in culture
Procedure: as §1, §2

P. aeruginosa P15 = assay: microbe, parasite or virus in culture
Procedure: as §1, §2

P. aeruginosa P16 = assay: microbe, parasite or virus in culture; conditions: MDR isolate P. aeruginosa P16
Procedure: as §1, §2

P. aeruginosa P17 = assay: microbe, parasite or virus in culture
Procedure: as §1, §2

E. coli ATCC 25922 = conditions: ATCC 25922, 24 h
Procedure: as §2

P. aeruginosa ATCC 27853 = conditions: ATCC 27853, 24 h
Procedure: as §2

S. aureus ATCC 29213 = conditions: ATCC 29213, 24 h
Procedure: as §2

[1] = Pseudomonas aeruginosa, read-out: MIC

SMILES	MIC E. coli ATCC 25922 (E. coli ATCC 25922) [µg/mL]	MIC P. aeruginosa ATCC 27853 (P. aeruginosa ATCC 27853) [µg/mL]	MIC S. aureus ATCC 29213 (S. aureus ATCC 29213) [µg/mL]	also measured
O=C(O)c1cn(C2CC2)c2cc(N3CCNCC3)c(F)cc2c1=O [Ciprofloxacin, reference compound]				MIC (E. coli 13974): 32 µg/mL (≈ 96.6 µM); MIC (E. coli 208691; Escherichia coli, 208691): 256 µg/mL (≈ 773 µM); MIC (E. coli 5545): 64 µg/mL (≈ 193 µM); MIC (E. coli 7259): 32 µg/mL (≈ 96.6 µM); MIC (E. coli 7987): 32 µg/mL (≈ 96.6 µM); MIC (E. coli 8248): 32 µg/mL (≈ 96.6 µM); MIC (P. aeruginosa P12; [1]): 64 µg/mL (≈ 193 µM); MIC (P. aeruginosa P13; Pseudomonas aeruginosa, P13): 128 µg/mL (≈ 386 µM); MIC (P. aeruginosa P15; Pseudomonas aeruginosa, P15): 256 µg/mL (≈ 773 µM); MIC (P. aeruginosa P16; [1]): 64 µg/mL (≈ 193 µM); MIC (P. aeruginosa P17; Pseudomonas aeruginosa, P17): 256 µg/mL (≈ 773 µM)
CC(C)C[C@H](NC(=O)[C@H](CCCCN)NC(=O)[C@H](CC(C)C)NC(=O)[C@H](CCCCN)NC(=O)[C@@H](N)CC(C)C)C(=O)N[C@@H](CCCCN)C(N)=O [A, H-Leu-Lys-Leu-Lys-Leu-Lys-NH2] (H-LKLKLK-NH2)	>64	>64	>64	
CC(=O)NCCNc1nc(NCCNC(C)=O)nc(Oc2ccc(C(=O)N[C@@H](CC(C)C)C(=O)N[C@@H](CCCCN)C(=O)N[C@@H](CC(C)C)C(=O)N[C@@H](CCCCN)C(=O)N[C@@H](CC(C)C)C(=O)N[C@@H](CCCCN)C(N)=O)cc2)n1 [D, (Ac-EDA)2-TA-PHBA-(LK)3-NH2] (X4-LKLKLK-NH2)	>64	>64	>64	
CC(=O)NCCNc1nc(NCCNC(C)=O)nc(N[C@@H](CC(C)C)C(=O)N[C@@H](CCCCN)C(=O)N[C@@H](CC(C)C)C(=O)N[C@@H](CCCCN)C(=O)N[C@@H](CC(C)C)C(=O)N[C@@H](CCCCN)C(N)=O)n1 [E, (Ac-EDA)2-TA-(LK)3-NH2] (H-[X3]KLKLK-NH2)	>64	>64	>64	
CC(C)C[C@H](NC(=O)[C@H](CCCCN)NC(=O)[C@H](CC(C)C)NC(=O)[C@H](CCCCN)NC(=O)[C@H](CC(C)C)NC(=O)[C@H](CCCCN)NC(=O)[C@H](CC(C)C)NC(=O)[C@H](CCCCN)NC(=O)[C@H](CC(C)C)NC(=O)[C@H](CCCCN)NC(=O)[C@H](CC(C)C)NC(=O)[C@H](CCCCN)NC(=O)[C@H](CC(C)C)NC(=O)[C@H](CCCCN)NC(=O)[C@H](CC(C)C)NC(=O)[C@H](CCCCN)NC(=O)[C@@H](N)CC(C)C)C(=O)N[C@@H](CCCCN)C(N)=O [G, H-(Leu-Lys)9-NH2] (H-LKLKLKLKLKLKLKLKLK-NH2)	>64	>64	>64	
CC(C)C[C@H](NC(=O)[C@H](Cc1ccccc1)NC(=O)CNC(=O)c1ccc(Oc2nc(NCCNC(=O)[C@H](CCCCN)NC(=O)[C@H](CC(C)C)NC(=O)[C@H](CCCCN)NC(=O)[C@H](CC(C)C)NC(=O)[C@H](CCCCN)NC(=O)[C@@H](N)CC(C)C)nc(NCCNC(=O)[C@H](CCCCN)NC(=O)[C@H](CC(C)C)NC(=O)[C@H](CCCCN)NC(=O)[C@H](CC(C)C)NC(=O)[C@H](CCCCN)NC(=O)[C@@H](N)CC(C)C)n2)cc1)C(N)=O [B, H-[(LK)3-EDA]2-TA-PHBA-GFL-NH2]	64 (≈ 30.5 µM)	32 (≈ 15.3 µM)	>64	
CC(C)C[C@H](NC(=O)[C@H](CCCCN)NC(=O)[C@H](CC(C)C)NC(=O)[C@H](CCCCN)NC(=O)[C@H](CC(C)C)NC(=O)[C@H](CCCCNC(=O)[C@H](CCCCN)NC(=O)[C@H](CC(C)C)NC(=O)[C@H](CCCCN)NC(=O)[C@H](CC(C)C)NC(=O)[C@H](CCCCN)NC(=O)[C@@H](N)CC(C)C)NC(=O)[C@H](CCCCN)NC(=O)[C@H](CC(C)C)NC(=O)[C@H](CCCCN)NC(=O)[C@H](CC(C)C)NC(=O)[C@H](CCCCN)NC(=O)[C@@H](N)CC(C)C)C(=O)N[C@@H](CCCCN)C(N)=O [F, H-[(LK)3]2-K-(LK)3-NH2] (I: H-LKLKLKKLKLKLK-NH2 / II: H-LKLKLK; amide I:7-II:C)	32 (≈ 13.8 µM)	>64	64 (≈ 27.6 µM)	
CC(=O)NCCNc1nc(NCCNC(C)=O)nc(Oc2ccc(C(=O)NCC(=O)N[C@@H](Cc3ccccc3)C(=O)N[C@@H](CC(C)C)C(N)=O)cc2)n1 [C, (Ac-EDA)2-TA-PHBA-GFL-NH2]	>64	>64	>64	
CC[C@H](C)CCCCC(=O)N[C@@H](CCN)C(=O)N[C@H](C(=O)N[C@@H](CCN)C(=O)N[C@H]1CCNC(=O)[C@H]([C@@H](C)O)NC(=O)[C@H](CCN)NC(=O)[C@H](CCN)NC(=O)[C@H](CC(C)C)NC(=O)[C@@H](CC(C)C)NC(=O)[C@H](CCN)NC1=O)[C@@H](C)O [Colistin, reference compound] (X2-[Dab]T[Dab][Dab][Dab][dL]L[Dab][Dab]T; lactam 4-C (inferred); N-terminus assumed)				MIC (E. coli 208691; MDR isolate E. coli 208691): 0.5 µg/mL (≈ 0.428 µM); MIC (P. aeruginosa P12): 64 µg/mL (≈ 54.7 µM); MIC (P. aeruginosa P13; MDR isolate P. aeruginosa P13): 32 µg/mL (≈ 27.4 µM); MIC (P. aeruginosa P15; MDR isolate P. aeruginosa P15): >128 µg/mL; MIC (P. aeruginosa P16): 16 µg/mL (≈ 13.7 µM); MIC (P. aeruginosa P17; MDR isolate P. aeruginosa P17): >8 µg/mL
